Data as given in patent US10738028B2, “Spiro three-membered ring, spiro five-membered ring peptide deformylase inhibitor and use thereof in antibacteria and anti-tumor” (priority 2016, dated 2020).
Converted amounts (≈) assume the structure as drawn. Where two headings read alike, the source gives them in different places.

How the values were obtained:
Assay type in all cases: cell-based
[1] = test system: MGC-803 gastric cancer cell line; experiment: CCK-8 proliferation inhibition; settings: Homo sapiens, MGC-803, 72 h, concentration of 30 μM
Excerpt: (§1) 2. The present invention adopts the CCK-8 method to determine the proliferation inhibition effect of the spiro three-membered ring, spiro five-membered ring peptide deformylase inhibitor as described in Examples 1-80 against colorectal cancer cells, lung cancer cells, gastric cancer cells, liver cancer cells, and the like. […] The compound having the best activity synthesized in Example 64 was further tested for its inhibitory activity against other tumor cells including T cell leukemia, acute myeloid leukemia, cervical cancer, breast cancer, prostate cancer and osteosarcoma, and the like (see Table 7).
(§2) (1) HCT-116 colorectal cancer cell line, A549 lung cancer cell line, MGC-803 gastric cancer cell line, BEL-7402 liver cancer cell line, Jurkat T cell leukemia cell line, HL60 acute myeloid leukemia cell line, Hela cervical cancer cell line, MCF-7 breast cancer cell line, PC3 prostate cancer cell line and SAOS-2 osteosarcoma cell line were made into single cell suspension, 180 μL of which was inoculated into 96-well culture plate, which was cultured overnight in CO2 incubator (37° C., 5% CO2, 95% air).
(§3) (2) Each of the spiro three-membered ring, spiro five membered ring peptide deformylase inhibitors was dissolved in DMSO, and was further formulated into drug solution with required different final concentration using corresponding cell culture medium. The drug solutions were added to the above cells respectively (20 μL/well), with the control group added with 1‰ DMSO, and cultured in a CO2 incubator for 72 hours.
(§4) (3) After incubation for 72 hours, the culture solution was decanted, and 100 μL of 1:10 diluted CCK-8 solution was added.
(§5) Wherein, in step (1), the concentration of the single cell suspension was 2000 cells/well.
(§6) Wherein, in step (2), HCT-116 cells were cultured in McCoy's 5A medium (containing 10% newborn bovine serum, 1% double antibody); A549 and PC3 cells were cultured in F12 medium (containing 10% newborn bovine serum, 1% double antibody); MGC-803, BEL-7402, SAOS-2, Jurkat and HL60 cells were cultured in 1640 medium (containing 10% newborn bovine serum, 1% double antibody); and MCF-7 and Hela cells were cultured in DMEM high glucose medium (containing 10% newborn bovine serum, 1% double antibody).

[2] = test system: BEL-7402 liver cancer cell line; experiment: CCK-8 proliferation inhibition; settings: concentration of 30 μM
Excerpt: as §1, §2, §3, §4, §5, §6

[3] = test system: A549 lung cancer cell line; experiment: CCK-8 proliferation inhibition; settings: Homo sapiens, A549, 72 h, concentration of 30 μM
Excerpt: as §1, §2, §3, §4, §5, §6

[4] = test system: methicillin-resistant Staphylococcus aureus (MRSA); experiment: MIC, two-fold agar dilution (CLSI), clinical isolates
How it was run: (§7)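 Following the American Clinical and Laboratory Standards Institute procedure, agar two-fold dilution served to determine minimum inhibitory concentrations.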

[5] = test system: Escherichia coli (including ESBLs, non-ESBLs); experiment: as above
How it was run: as §7

[6] = test system: Streptococcus pneoumoniae (SPN); experiment: as above
How it was run: as §7

[7] = test system: methicillin-sensitive Staphylococcus epidermidis (MSSE); experiment: as above
How it was run: as §7

[8] = test system: methicillin-resistant Staphylococcus epidermidis (MRSE); experiment: as above
How it was run: as §7

[9] = test system: Enterococcus faecium (EFM); experiment: as above
How it was run: as §7

[10] = test system: Moraxella catarrhalis (BCA); experiment: as above
How it was run: as §7

[11] = test system: Enterococcus faecalis (EFA); experiment: as above
How it was run: as §7

[12] = test system: methicillin-sensitive Staphylococcus aureus (MSSA); experiment: as above
How it was run: as §7

[13] = test system: HCT-116 colorectal cancer cell line; experiment: CCK-8 proliferation inhibition; settings: Homo sapiens, HCT-116, 72 h, concentration of 30 μM, 72 hours, CCK-8
How it was run: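 2000 cells/well, McCoy's 5A + 10% newborn bovine serum; overnight attach, 37° C./5% CO2. Cpd from DMSO stock diluted in medium, 72 h. Readout: CCK-8 (1:10). Ctrl 1‰ DMSO.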

O=CN(O)C[C@@H](CC1CCCC1)C(=O)N1CC2(CC2)C[C@H]1C(=O)Nc1ccc(N2CCOCC2)cc1 [Example 25, (S)-5-((R)-3-cyclopentyl-2-((N-hydroxyformamido)methyl)propionyl)-N-(4-morpholinophenyl)-5-spiro[2.4]heptane-6-carboxamide]
inhibition at 30 µM [1]: 27%
inhibition at 30 µM ([2]; Homo sapiens, Bel-7402, 72 h): > 50%
Inhibition of proliferation, Liver cancer BEL-7402 ([2]; 72 hours, 30 µM): 65%
inhibition at 30 µM [3]: 30%
MIC (anti-bacterial activity) ([4]; strain MRSA 15-1): 0.25 µg/mL (≈ 0.501 µM)
MIC (anti-bacterial activity) ([4]; strain MRSA 15-2): 0.25 µg/mL (≈ 0.501 µM)
MIC (anti-bacterial activity) ([4]; strain MRSA 15-3): 0.25 µg/mL (≈ 0.501 µM)
MIC (anti-bacterial activity) ([4]; strain MRSA 15-4): 0.25 µg/mL (≈ 0.501 µM)
MIC (anti-bacterial activity) ([5]; strain ECO+ 15-1): 32 µg/mL (≈ 64.2 µM)
MIC (anti-bacterial activity) ([5]; strain ECO+ 15-2): > 32 µg/mL
MIC (anti-bacterial activity) ([5]; strain ECO+ 15-3): > 32 µg/mL
MIC (anti-bacterial activity) ([5]; strain ECO+ 15-4): > 32 µg/mL
MIC (anti-bacterial activity) ([5]; strain ECO− 15-1): > 32 µg/mL
MIC (anti-bacterial activity) ([5]; strain ECO− 15-2): > 32 µg/mL
MIC (anti-bacterial activity) ([5]; strain ECO− 15-3): > 32 µg/mL
MIC (anti-bacterial activity) ([5]; strain ECO− 15-4): > 32 µg/mL
MIC (anti-bacterial activity) ([6]; strain SPN 16-2): 0.5 µg/mL (≈ 1 µM)
MIC (anti-bacterial activity) ([6]; strain SPN 16-4): 2 µg/mL (≈ 4.01 µM)
MIC (anti-bacterial activity) ([7]; strain MSSE 15-3): 0.25 µg/mL (≈ 0.501 µM)
MIC (anti-bacterial activity) ([7]; strain MSSE 15-4): 0.25 µg/mL (≈ 0.501 µM)
MIC (anti-bacterial activity) ([7]; strain MSSE 15-5): 0.25 µg/mL (≈ 0.501 µM)
MIC (anti-bacterial activity) ([7]; strain MSSE 15-6): 0.25 µg/mL (≈ 0.501 µM)
MIC (anti-bacterial activity) ([8]; strain MRSE 15-1): 0.06 µg/mL (≈ 0.12 µM)
MIC (anti-bacterial activity) ([8]; strain MRSE 15-2): 0.25 µg/mL (≈ 0.501 µM)
MIC (anti-bacterial activity) ([8]; strain MRSE 15-3): 0.25 µg/mL (≈ 0.501 µM)
MIC (anti-bacterial activity) ([8]; strain MRSE 15-7): 0.25 µg/mL (≈ 0.501 µM)
MIC (anti-bacterial activity) ([9]; strain EFM 15-1): 1 µg/mL (≈ 2.01 µM)
MIC (anti-bacterial activity) ([9]; strain EFM 15-2): 0.5 µg/mL (≈ 1 µM)
MIC (anti-bacterial activity) ([9]; strain EFM 15-3): 0.5 µg/mL (≈ 1 µM)
MIC (anti-bacterial activity) ([9]; strain EFM 15-4): 0.25 µg/mL (≈ 0.501 µM)
MIC (anti-bacterial activity) ([9]; strain EFM 15-5): 0.5 µg/mL (≈ 1 µM)
MIC (anti-bacterial activity) ([9]; strain EFM 15-6): 1 µg/mL (≈ 2.01 µM)
MIC (anti-bacterial activity) ([10]; strain BCA 14-1): 0.5 µg/mL (≈ 1 µM)
MIC (anti-bacterial activity) ([10]; strain BCA 14-4): 0.25 µg/mL (≈ 0.501 µM)
MIC (anti-bacterial activity) ([10]; strain BCA 14-5): 0.5 µg/mL (≈ 1 µM)
MIC (anti-bacterial activity) ([10]; strain BCA 14-6): 1 µg/mL (≈ 2.01 µM)
MIC (anti-bacterial activity) ([10]; strain BCA 14-7): 0.25 µg/mL (≈ 0.501 µM)
MIC (anti-bacterial activity) ([10]; strain BCA 14-8): 0.25 µg/mL (≈ 0.501 µM)
MIC (anti-bacterial activity) ([10]; strain BCA 14-10): 0.25 µg/mL (≈ 0.501 µM)
MIC (anti-bacterial activity) ([11]; strain EFA 15-1): 2 µg/mL (≈ 4.01 µM)
MIC (anti-bacterial activity) ([11]; strain EFA 15-2): 2 µg/mL (≈ 4.01 µM)
MIC (anti-bacterial activity) ([11]; strain EFA 15-3): 0.5 µg/mL (≈ 1 µM)
MIC (anti-bacterial activity) ([11]; strain EFA 15-4): 2 µg/mL (≈ 4.01 µM)
MIC (anti-bacterial activity) ([11]; strain EFA 15-5): 2 µg/mL (≈ 4.01 µM)
MIC (anti-bacterial activity) ([11]; strain EFA 15-6): 2 µg/mL (≈ 4.01 µM)
MIC (anti-bacterial activity) ([11]; strain EFA 15-9): 2 µg/mL (≈ 4.01 µM)
MIC (anti-bacterial activity) ([12]; strain MSSA 15-3): 0.25 µg/mL (≈ 0.501 µM)
MIC (anti-bacterial activity) ([12]; strain MSSA 15-4): 0.25 µg/mL (≈ 0.501 µM)
MIC (anti-bacterial activity) ([12]; strain MSSA 15-5): 0.25 µg/mL (≈ 0.501 µM)
MIC (anti-bacterial activity) ([12]; strain MSSA 15-6): 0.25 µg/mL (≈ 0.501 µM)
inhibition at 30 µM ([13]; Table 5, read-out: Inhibition of proliferation, Colorectal cancer HCT116): ≥ 30%
inhibition at 30 µM ([13]; read-out: HCT116 inhibition rate/%): 35%
